Biological target: T1, AKT1-E17K (Homo sapiens, UniProt P31749, E17K)
T1 construct: host or cells: HEK-293 (ATCC CRL-1573)
Experiment: NanoBRET Target Engagement (TE) Assay
Type: cell-based
Settings: full length AKT E17K NanoLuc fusion in transfected HEK-293 cells; 2 hr equilibration with tracer and compound
Excerpt: NanoBRET is a highly specific and validated cell-based technique for assessing target engagement (Vasta et al., 2018, Cell Chem Biol. 25(2):206-214). The NanoBRET™ Target Engagement (TE) Intracellular Kinase Assays are based on the NanoBRET™ System (Promega Corporation), an energy transfer technique designed to measure molecular proximity in living cells. The NanoBRET™ TE Assays measure the apparent affinity of test compounds by competitive displacement of the NanoBRET™ tracer compound, which is a cell permeable molecule engineered to be reversibly bound to a NanoLuc® luciferase-kinase fusion expressed in cells. For compound screening, when a test compound binds to the selected kinase, the BRET signal is attenuated. For kinase inhibitors in particular, intracellular target selectivity is fundamental to pharmacological mechanism and allows the proteins of interest to be in the correct cellular confirmation. Although non-cell-based techniques have been developed to measure kinase binding or enzymatic inhibition with accuracy and precision, such approaches can fail to accurately predict engagement of the full-length target protein in the more complex and biologically relevant cellular context (Knight and Shokat, 2005, Chem. Biol. 12, 621-637; Smyth and Collins, 2009, J. Chem. Biol. 2, 131-151). […] Briefly, HEK-293 cells (ATCC Cat #CRL-1573) were used for transfection purposes using FuGENE HD Transfection Reagent (Promega Cat #E2311). All cells were evaluated for viability prior to transfection and optimization of the transfection was done prior to experimentation. Greater than 95% viability was used for all experiments. Following transfection, cells were washed and resuspended in Opti-MEM. NanoBRET assays were performed in white, 384-well plates (Corning) at a density of 2×10^5 cells/well. All example compounds were prepared as concentrated stock solutions in DMSO (Sigma-Aldrich). Compounds are dissolved in DMSO to make 10 mM stock solution. Example compounds were transferred as 40 μL of 10 mM stock solution to a 384 pp-plate (LABCYTE, PP-0200) and diluted in 3-fold, 10-point dilution via transferring […] by Apricot liquid handler. A Labcyte ECHO 550 compound dispenser was used to facilitate compound transfer directly to cells. Cells were equilibrated for 2 hr with energy transfer probes and example compound prior to BRET measurements. The AKTE17K (Promega Cat #NV2421) as well as specific probe (NanoBRET tracer, Promega Cat #N264B) was prepared at a concentration of 20× in tracer dilution buffer (12.5 mM HEPES, 31.25% PEG-400, pH 7.5). For target engagement analysis, the energy transfer probes were added to the cells at concentrations optimized for the target in question (AKT E17K). Following compound incubation, NanoBRET NanoGlo Substrate (Promega Cat #N157D) and Extracellular Nanoluc Inhibitor (Promega Cat #N235C) was added according to the manufacturer's recommended protocol, and luminescence was measured on Envision Reader (Perkin Elmer) Multimode Luminometer equipped with 450 nmBPfilter (donor) and 600 nmLPfilter (acceptor), using 0.5 s integration time. Milli-BRET units (mBU) are calculated by multiplying the raw BRET values by 1000. Apparent tracer affinity values (EC50) were determined using the sigmoidal dose-response (variable slope). Competitive displacement data were then plotted and data were fit to determine the EC50 value for each example compound.

T1 sequence (P31749 whole entry E17K): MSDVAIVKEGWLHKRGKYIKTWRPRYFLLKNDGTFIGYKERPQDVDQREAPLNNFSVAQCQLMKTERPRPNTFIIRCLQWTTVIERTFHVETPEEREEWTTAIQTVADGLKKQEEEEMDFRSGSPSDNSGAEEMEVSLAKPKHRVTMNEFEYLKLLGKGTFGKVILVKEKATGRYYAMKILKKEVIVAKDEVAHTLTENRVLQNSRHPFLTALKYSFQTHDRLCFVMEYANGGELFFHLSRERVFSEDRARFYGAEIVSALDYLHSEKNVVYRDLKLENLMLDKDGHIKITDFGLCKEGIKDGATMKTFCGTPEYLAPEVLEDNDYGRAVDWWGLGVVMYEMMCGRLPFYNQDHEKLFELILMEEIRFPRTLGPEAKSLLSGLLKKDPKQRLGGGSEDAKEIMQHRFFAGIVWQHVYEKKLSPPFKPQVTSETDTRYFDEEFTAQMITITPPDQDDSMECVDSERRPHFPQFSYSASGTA

With `N#CN1CCCC2(C1)CN(Cc1ccc(-n3c(-c4cccnc4N)nc4ccc(-c5ccccc5)nc43)cc1)C2` [Example 39, 2-(4-(2-(2-Aminopyridin-3-yl)-5-phenyl-3H-imidazo[4,5-b]pyridin-3-yl)benzyl)-2,6-diazaspiro[3.5]nonane-6-carbonitrile] as the molecule, how does the IC50 read?
The IC50 was 60 to 600 nM.

For `N#CN1CCCC2(CCN(Cc3ccc(-n4c(-c5cccnc5N)nc5ccc(-c6ccccc6)nc54)cc3)CC2)C1` [Example 24, 9-(4-(2-(2-Aminopyridin-3-yl)-5-phenyl-3H-imidazo[4,5-b]pyridin-3-yl)benzyl)-2,9-diazaspiro[5.5]undecane-2-carbonitrile], which IC50 is on record?
Its IC50 is 60 to 600 nM.

How did the IC50 turn out when `N#CN1CC2CCC(C1)N2Cc1ccc(-n2c(-c3cccnc3N)nc3ccc(-c4ccccc4)nc32)cc1` [Example 29, 8-(4-(2-(2-Aminopyridin-3-yl)-5-phenyl-3H-imidazo[4,5-b]pyridin-3-yl)benzyl)-3,8-diazabicyclo[3.2.1]octane-3-carbonitrile] was run?
Its IC50 is 15 to 60 nM.

How did the IC50 turn out when `C[C@@H]1CN(Cc2ccc(-n3c(-c4cccnc4N)nc4ccc(-c5ccccc5)nc43)cc2)C[C@@H](C)N1C#N` [Example 26, (2R,6R)-4-(4-(2-(2-Aminopyridin-3-yl)-5-phenyl-3H-imidazo[4,5-b]pyridin-3-yl)benzyl)-2,6-dimethylpiperazine-1-carbonitrile] was run?
Its IC50 is greater than 600 nM.

For `N#CN1CC2(C1)CN(Cc1ccc(-n3c(-c4cccnc4N)nc4ccc(-c5ccccc5)nc43)cc1)C2` [Example 5, 6-(4-(2-(2-Aminopyridin-3-yl)-5-phenyl-3H-imidazo[4,5-b]pyridin-3-yl)benzyl)-2,6-diazaspiro[3.3]heptane-2-carbonitrile], which IC50 is on record?
Its IC50 is 15 to 60 nM.

With `N#CN1CC2(CCN(Cc3ccc(-n4c(-c5cccnc5N)nc5ccc(-c6ccccc6)nc54)cc3)CC2)C1` [Example 15, 7-(4-(2-(2-Aminopyridin-3-yl)-5-phenyl-3H-imidazo[4,5-b]pyridin-3-yl)benzyl)-2,7-diazaspiro[3.5]nonane-2-carbonitrile] as the molecule, how does the IC50 read?
Its IC50 is 15 to 60 nM.

How did the IC50 turn out when `N#CN[C@H]1CCN(Cc2ccc(-n3c(-c4cccnc4N)nc4ccc(-c5ccccc5)nc43)cc2)C1` [Example 7, (S)—N-(1-(4-(2-(2-Aminopyridin-3-yl)-5-phenyl-3H-imidazo[4,5-b]pyridin-3-yl)benzyl)pyrrolidin-3-yl)cyanamide] was run?
The IC50 was less than 15 nM.

Which IC50 does the source give for `N#CN[C@H]1CCCN(Cc2ccc(-n3c(-c4cccnc4N)nc4ccc(-c5ccccc5)nc43)cc2)C1` [Example 6, (S)—N-(1-(4-(2-(2-Aminopyridin-3-yl)-5-phenyl-3H-imidazo[4,5-b]pyridin-3-yl)benzyl)piperidin-3-yl)cyanamide] here?
Its IC50 is 15 to 60 nM.

Which IC50 does the source give for `N#CN1CCC2(CCN(Cc3ccc(-n4c(-c5cccnc5N)nc5ccc(-c6ccccc6)nc54)cc3)C2)C1` (stereo not drawn) [Example 19, 7-(4-(2-(2-Aminopyridin-3-yl)-5-phenyl-3H-imidazo[4,5-b]pyridin-3-yl)benzyl)-2,7-diazaspiro[4.4]nonane-2-carbonitrile] here?
The IC50 was 15 to 60 nM.

`N#CN1CCN(Cc2ccc(-n3c(-c4cccnc4N)nc4ccc(-c5ccccc5)nc43)cc2)CC1` [Example 2, 4-(4-(2-(2-Aminopyridin-3-yl)-5-phenyl-3H-imidazo[4,5-b]pyridin-3-yl)benzyl)piperazine-1-carbonitrile] was tested. Which IC50 did it give?
The IC50 was greater than 600 nM.

For `N#CNC1CCN(Cc2ccc(-n3c(-c4cccnc4N)nc4ccc(-c5ccccc5)nc43)cc2)CC1` [Example 3, N-(1-(4-(2-(2-Aminopyridin-3-yl)-5-phenyl-3H-imidazo[4,5-b]pyridin-3-yl)benzyl)piperidin-4-yl)cyanamide], which IC50 is on record?
The IC50 was less than 15 nM.

With `N#CNC1CCC2(CC1)CCN(Cc1ccc(-n3c(-c4cccnc4N)nc4ccc(-c5ccccc5)nc43)cc1)C2` (stereo not drawn) [Example 8, N-(2-(4-(2-(2-Aminopyridin-3-yl)-5-phenyl-3H-imidazo[4,5-b]pyridin-3-yl)benzyl)-2-azaspiro[4.5]decan-8-yl)cyanamide] as the molecule, how does the IC50 read?
The IC50 was 60 to 600 nM.

For `N#CN1CCC2(CC1)CCN(Cc1ccc(-n3c(-c4cccnc4N)nc4ccc(-c5ccccc5)nc43)cc1)C2` [Example 20, 2-(4-(2-(2-Aminopyridin-3-yl)-5-phenyl-3H-imidazo[4,5-b]pyridin-3-yl)benzyl)-2,8-diazaspiro[4.5]decane-8-carbonitrile], which IC50 is on record?
Its IC50 is 15 to 60 nM.

How did the IC50 turn out when `N#CN1C[C@H]2C[C@@H]1CN2Cc1ccc(-n2c(-c3cccnc3N)nc3ccc(-c4ccccc4)nc32)cc1` [Example 35, (1R,4R)-5-(4-(2-(2-Aminopyridin-3-yl)-5-phenyl-3H-imidazo[4,5-b]pyridin-3-yl)benzyl)-2,5-diazabicyclo[2.2.1]heptane-2-carbonitrile] was run?
Its IC50 is 60 to 600 nM.

With `C[C@H]1CN(Cc2ccc(-n3c(-c4cccnc4N)nc4ccc(-c5ccccc5)nc43)cc2)CCN1C#N` [Example 32, (S)-4-(4-(2-(2-Aminopyridin-3-yl)-5-phenyl-3H-imidazo[4,5-b]pyridin-3-yl)benzyl)-2-methylpiperazine-1-carbonitrile] as the molecule, how does the IC50 read?
Its IC50 is greater than 600 nM.

How did the IC50 turn out when `N#CNC1CCCN(Cc2ccc(-n3c(-c4cccnc4N)nc4ccc(-c5ccccc5)nc43)cc2)CC1` (stereo not drawn) [Example 30, N-(1-(4-(2-(2-Aminopyridin-3-yl)-5-phenyl-3H-imidazo[4,5-b]pyridin-3-yl)benzyl)azepan-4-yl)cyanamide] was run?
The IC50 was 15 to 60 nM.

Which IC50 does the source give for `N#CN1CC2CCC1CN2Cc1ccc(-n2c(-c3cccnc3N)nc3ccc(-c4ccccc4)nc32)cc1` (stereo not drawn) [Example 37, 5-(4-(2-(2-Aminopyridin-3-yl)-5-phenyl-3H-imidazo[4,5-b]pyridin-3-yl)benzyl)-2,5-diazabicyclo[2.2.2]octane-2-carbonitrile] here?
The IC50 was 60 to 600 nM.

For `C[C@@H]1CN(Cc2ccc(-n3c(-c4cccnc4N)nc4ccc(-c5ccccc5)nc43)cc2)C[C@H](C)N1C#N` [Example 36, (2S,6R)-4-(4-(2-(2-Aminopyridin-3-yl)-5-phenyl-3H-imidazo[4,5-b]pyridin-3-yl)benzyl)-2,6-dimethylpiperazine-1-carbonitrile], which IC50 is on record?
The IC50 was greater than 600 nM.

For `CC(=O)Nc1cccc(-c2ccc3nc(-c4cccnc4N)n(-c4ccc(CN5CCC(NC#N)CC5)cc4)c3n2)c1` [Example 4, N-(3-(2-(2-Aminopyridin-3-yl)-3-(4-((4-cyanamidopiperidin-1-yl)methyl)phenyl)-3H-imidazo[4,5-b]pyridin-5-yl)phenyl)acetamide], which IC50 is on record?
The IC50 was less than 15 nM.

`N#CN1C[C@@H]2C[C@H]1CN2Cc1ccc(-n2c(-c3cccnc3N)nc3ccc(-c4ccccc4)nc32)cc1` [Example 34, (1S,4S)-5-(4-(2-(2-Aminopyridin-3-yl)-5-phenyl-3H-imidazo[4,5-b]pyridin-3-yl)benzyl)-2,5-diazabicyclo[2.2.1]heptane-2-carbonitrile] was tested. Which IC50 did it give?
The IC50 was 60 to 600 nM.

`N#CN[C@@H]1CCN(Cc2ccc(-n3c(-c4cccnc4N)nc4ccc(-c5ccccc5)nc43)cc2)C1` [Example 10, (R)—N-(1-(4-(2-(2-Aminopyridin-3-yl)-5-phenyl-3H-imidazo[4,5-b]pyridin-3-yl)benzyl)pyrrolidin-3-yl)cyanamide] was tested. Which IC50 did it give?
The IC50 was less than 15 nM.

`N#CN1C[C@@H]2CN(Cc3ccc(-n4c(-c5cccnc5N)nc5ccc(-c6ccccc6)nc54)cc3)C[C@@H]2C1` [Example 43, (3aR,6aS)-5-(4-(2-(2-Aminopyridin-3-yl)-5-phenyl-3H-imidazo[4,5-b]pyridin-3-yl)benzyl)hexahydropyrrolo[3,4-c]pyrrole-2(1H)-carbonitrile] was tested. Which IC50 did it give?
Its IC50 is 60 to 600 nM.

With `N#CN1CC[C@@]2(CCN(Cc3ccc(-n4c(-c5cccnc5N)nc5ccc(-c6ccccc6)nc54)cc3)C2)C1` [Example 23, (R)-7-(4-(2-(2-Aminopyridin-3-yl)-5-phenyl-3H-imidazo[4,5-b]pyridin-3-yl)benzyl)-2,7-diazaspiro[4.4]nonane-2-carbonitrile] as the molecule, how does the IC50 read?
The IC50 was less than 15 nM.

How did the IC50 turn out when `N#CNC1CCCCN(Cc2ccc(-n3c(-c4cccnc4N)nc4ccc(-c5ccccc5)nc43)cc2)C1` (stereo not drawn) [Example 31, N-(1-(4-(2-(2-Aminopyridin-3-yl)-5-phenyl-3H-imidazo[4,5-b]pyridin-3-yl)benzyl)azepan-3-yl)cyanamide] was run?
The IC50 was 60 to 600 nM.

Source: patent publication US20260193274A1, “AKT1 MODULATORS” (Alterome Therapeutics, Inc., priority 2022, published 2026)
